Source: patent US11753407B2, “Compounds for treating spinal muscular atrophy” (PTC Therapeutics, Inc., priority 2012, dated 2023)

How the values were obtained:
[1] = test system: Smn protein in SMA patient fibroblast cells (GM03813); assay: Smn protein assay in cultured cells (SMN HTRF); assay type: cell-based, human; settings: SMA patient fibroblast cells, 48 hours; for maximum fold (Fold) increase of Smn protein: 7-point concentration data, fold relative to vehicle control; for EC1.5x for Smn protein expression: 7-point concentration curve, SMN HTRF, concentration producing 1.5 times Smn protein vs DMSO vehicle control
Procedure, shortened: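 Cells were cultured 72 h, seeded at 5,000/well and dosed with seven concentrations (3.16-fold apart) for 48 h. HTRF on lysates, read at 665 and 620 nm, gave blank-corrected ΔF values relative to DMSO. Potency is reported as EC1.5×, efficacy as maximal fold Smn increase.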

[2] = test system: SMN2 minigene mRNA (SMN2-A minigene) in HEK293H cells; assay: SMN2 minigene mRNA splicing RT-qPCR assay in cultured cells; assay type: cell-based, human; settings: Homo sapiens, HEK293-H; concentration increasing full length SMN2 mRNA 1.5-fold relative to vehicle-treated cells; HEK293H cells with SMN2-A minigene, 24 hours, 7-point concentration data; read-out: EC1.5x for production of full length SMN2 mRNA
Procedure, shortened: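 EC1.5× values derive from a 24 h treatment of SMN2-A minigene HEK293H cells and GAPDH-normalized RT-qPCR of exon 7-included minigene mRNA relative to vehicle-treated cells.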

SMILES: Cc1cn2nc(-c3cc(=O)n4cc(C5=CCN(C6CC6)CC5)cc(C)c4n3)cc2c(C)n1 [Compound 483, 7-(1-cyclopropyl-1,2,3,6-tetrahydropyridin-4-yl)-2-(4,6-dimethylpyrazolo[1,5-a]pyrazin-2-yl)-9-methyl-4H-pyrido[1,2-a]pyrimidin-4-one]
- maximum fold (Fold) increase of Smn protein [1]: ** (a fold increase between >1.2 and ≤1.35 is indicated by two stars (**))
- EC (1.5-fold increase) [2]: < 0.1 µM

SMILES: CCN1CC=C(c2ccc3nc(-c4cc5cnc(C)cn5n4)cc(=O)n3c2)CC1 [Compound 485, 7-(1-ethyl-1,2,3,6-tetrahydropyridin-4-yl)-2-(6-methylpyrazolo[1,5-a]pyrazin-2-yl)-4H-pyrido[1,2-a]pyrimidin-4-one]
- EC1.5x for Smn protein expression [1]: **** (an EC1.5x≤0.3 μM is indicated by four stars (****))
- maximum fold (Fold) increase of Smn protein [1]: ***** (a fold increase >1.65 is indicated by five stars (*****))
- EC (1.5-fold increase) [2]: < 0.1 µM

SMILES: CN1CCCN(c2ccc3nc(-c4ccc5c(cnn5C)c4)cc(=O)n3c2)CC1 [Compound 492, 7-(4-methyl-1,4-diazepan-1-yl)-2-(1-methyl-1H-indazol-5-yl)-4H-pyrido[1,2-a]pyrimidin-4-one]
- EC1.5x for Smn protein expression [1]: ** (an EC1.5× between >1 μM and ≤3 μM is indicated by two stars (**))
- maximum fold (Fold) increase of Smn protein [1]: **** (a fold increase between >1.5 and ≤1.65 is indicated by four stars (****))
- EC (1.5-fold increase) [2]: 0.3 to 1 µM

SMILES: Cc1cn2nc(-c3cc(=O)n4cc(C5CCNCC5)ncc4n3)cc2c(C)n1 [Compound 502, 2-(4,6-dimethylpyrazolo[1,5-a]pyrazin-2-yl)-7-(piperidin-4-yl)-4H-pyrazino[1,2-a]pyrimidin-4-one]
- EC1.5x for Smn protein expression [1]: **** (an EC1.5x≤0.3 μM is indicated by four stars (****))
- maximum fold (Fold) increase of Smn protein [1]: ***** (a fold increase >1.65 is indicated by five stars (*****))
- EC (1.5-fold increase) [2]: < 0.1 µM

SMILES: CCN1CCC(c2cn3c(=O)cc(-c4cc5c(C)nc(C)cn5n4)nc3cn2)CC1 [Compound 504, 2-(4,6-dimethylpyrazolo[1,5-a]pyrazin-2-yl)-7-(1-ethylpiperidin-4-yl)-4H-pyrazino[1,2-a]pyrimidin-4-one]
- EC1.5x for Smn protein expression [1]: **** (an EC1.5x≤0.3 μM is indicated by four stars (****))
- maximum fold (Fold) increase of Smn protein [1]: ***** (a fold increase >1.65 is indicated by five stars (*****))
- EC (1.5-fold increase) [2]: < 0.1 µM

SMILES: CCN1CC=C(c2cn3c(=O)cc(-c4ccc5c(cnn5C)c4)nc3cn2)CC1 [Compound 507, 7-(1-ethyl-1,2,3,6-tetrahydropyridin-4-yl)-2-(1-methyl-1H-indazol-5-yl)-4H-pyrazino[1,2-a]pyrimidin-4-one]
- EC1.5x for Smn protein expression [1]: *** (an EC1.5× between >0.3 μM and ≤1 μM is indicated by three stars (***))
- maximum fold (Fold) increase of Smn protein [1]: **** (a fold increase between >1.5 and ≤1.65 is indicated by four stars (****))
- EC (1.5-fold increase) [2]: 0.1 to 0.3 µM

SMILES: CCN1CCN(c2cc(C)c3nc(-c4cc5c(C)nc(C)cn5n4)cc(=O)n3c2)CC1 [Compound 508, 2-(4,6-dimethylpyrazolo[1,5-a]pyrazin-2-yl)-7-(4-ethylpiperazin-1-yl)-9-methyl-4H-pyrido[1,2-a]pyrimidin-4-one]
- EC1.5x for Smn protein expression [1]: *** (an EC1.5× between >0.3 μM and ≤1 μM is indicated by three stars (***))
- maximum fold (Fold) increase of Smn protein [1]: **** (a fold increase between >1.5 and ≤1.65 is indicated by four stars (****))
- EC (1.5-fold increase) [2]: < 0.1 µM

SMILES: Cc1cn2nc(-c3cc(=O)n4nc(C5CCNCC5)ccc4n3)cc2c(C)n1 [Compound 512, 2-(4,6-dimethylpyrazolo[1,5-a]pyrazin-2-yl)-7-(piperidin-4-yl)-4H-pyrimido[1,2-b]pyridazin-4-one]
- EC1.5x for Smn protein expression [1]: **** (an EC1.5x≤0.3 μM is indicated by four stars (****))
- maximum fold (Fold) increase of Smn protein [1]: ***** (a fold increase >1.65 is indicated by five stars (*****))
- EC (1.5-fold increase) [2]: < 0.1 µM

SMILES: Cc1cn2nc(-c3cc(=O)n4cc(N5CCCN(C)CC5)cc(C)c4n3)cc2c(C)n1 [Compound 520, 2-(4,6-dimethylpyrazolo[1,5-a]pyrazin-2-yl)-9-methyl-7-(4-methyl-1,4-diazepan-1-yl)-4H-pyrido[1,2-a]pyrimidin-4-one]
- EC1.5x for Smn protein expression [1]: **** (an EC1.5x≤0.3 μM is indicated by four stars (****))
- maximum fold (Fold) increase of Smn protein [1]: **** (a fold increase between >1.5 and ≤1.65 is indicated by four stars (****))
- EC (1.5-fold increase) [2]: 0.1 to 0.3 µM

SMILES: Cn1cc2cc(-c3cc(=O)n4nc(C5CCNCC5)ccc4n3)ccc2n1 [Compound 521, 2-(2-methyl-2H-indazol-5-yl)-7-(piperidin-4-yl)-4H-pyrimido[1,2-b]pyridazin-4-one]
- EC1.5x for Smn protein expression [1]: **** (an EC1.5x≤0.3 μM is indicated by four stars (****))
- maximum fold (Fold) increase of Smn protein [1]: ***** (a fold increase >1.65 is indicated by five stars (*****))
- EC (1.5-fold increase) [2]: 0.1 to 0.3 µM

SMILES: Cc1cn2nc(-c3cc(=O)n4cc(N5CCNC(C)(C)C5)cc(C)c4n3)cc2c(C)n1 [Compound 544, 7-(3,3-dimethylpiperazin-1-yl)-2-(4,6-dimethylpyrazolo[1,5-a]pyrazin-2-yl)-9-methyl-4H-pyrido[1,2-a]pyrimidin-4-one]
- EC1.5x for Smn protein expression [1]: *** (an EC1.5× between >0.3 μM and ≤1 μM is indicated by three stars (***))
- maximum fold (Fold) increase of Smn protein [1]: **** (a fold increase between >1.5 and ≤1.65 is indicated by four stars (****))
- EC (1.5-fold increase) [2]: < 0.1 µM

SMILES: Cc1cn2cc(-c3cc(=O)n4cc(C5CCNCC5)ncc4n3)ccc2n1 [Compound 585, 2-(2-methylimidazo[1,2-a]pyridin-6-yl)-7-(piperidin-4-yl)-4H-pyrazino[1,2-a]pyrimidin-4-one]
- EC1.5x for Smn protein expression [1]: **** (an EC1.5x≤0.3 μM is indicated by four stars (****))
- maximum fold (Fold) increase of Smn protein [1]: ***** (a fold increase >1.65 is indicated by five stars (*****))
- EC (1.5-fold increase) [2]: < 0.1 µM

SMILES: Cc1cn2cc(-c3cc(=O)n4cc(C5CCNCC5)ncc4n3)cc(Cl)c2n1 [Compound 587, 2-(8-chloro-2-methylimidazo[1,2-a]pyridin-6-yl)-7-(piperidin-4-yl)-4H-pyrazino[1,2-a]pyrimidin-4-one]
- EC1.5x for Smn protein expression [1]: **** (an EC1.5x≤0.3 μM is indicated by four stars (****))
- maximum fold (Fold) increase of Smn protein [1]: **** (a fold increase between >1.5 and ≤1.65 is indicated by four stars (****))
- EC (1.5-fold increase) [2]: < 0.1 µM

SMILES: Cc1cn2cc(-c3cc(=O)n4cc(C5CCNCC5)ncc4n3)cc(C)c2n1 [Compound 588, 2-(2,8-dimethylimidazo[1,2-a]pyridin-6-yl)-7-(piperidin-4-yl)-4H-pyrazino[1,2-a]pyrimidin-4-one]
- EC1.5x for Smn protein expression [1]: **** (an EC1.5x≤0.3 μM is indicated by four stars (****))
- maximum fold (Fold) increase of Smn protein [1]: ***** (a fold increase >1.65 is indicated by five stars (*****))
- EC (1.5-fold increase) [2]: < 0.1 µM

SMILES: CN1CCN(c2cn3c(=O)cc(-c4ccc5nn(C)cc5c4)nc3cn2)CC1 [Compound 589, 2-(2-methyl-2H-indazol-5-yl)-7-(4-methylpiperazin-1-yl)-4H-pyrazino[1,2-a]pyrimidin-4-one]
- EC1.5x for Smn protein expression [1]: *** (an EC1.5× between >0.3 μM and ≤1 μM is indicated by three stars (***))
- maximum fold (Fold) increase of Smn protein [1]: **** (a fold increase between >1.5 and ≤1.65 is indicated by four stars (****))
- EC (1.5-fold increase) [2]: 0.1 to 0.3 µM
